Read-outs that look alike come from different tables or passages of the source. Each block holds one substance with its values, some of them ahead of it. No end group written: not given here.
Tests used:
[1] = target: T1, β-Klotho (Homo sapiens, UniProt Q86Z14); experiment: AlphaScreen competition binding assay (inhibition of β-Klotho binding to biotinylated FGF19 or FGF21); conditions: Suppl Fig S6A, 20 nM β-Klotho ECD 6×His, 40 nM biotinylated human FGF21, d.n.c. = did not converge
T1 construct: the ECD of human β-Klotho (aa1–992) fused with a 6 × His tag at the C-terminus; made in house
T1 sequence (Q86Z14 1-992): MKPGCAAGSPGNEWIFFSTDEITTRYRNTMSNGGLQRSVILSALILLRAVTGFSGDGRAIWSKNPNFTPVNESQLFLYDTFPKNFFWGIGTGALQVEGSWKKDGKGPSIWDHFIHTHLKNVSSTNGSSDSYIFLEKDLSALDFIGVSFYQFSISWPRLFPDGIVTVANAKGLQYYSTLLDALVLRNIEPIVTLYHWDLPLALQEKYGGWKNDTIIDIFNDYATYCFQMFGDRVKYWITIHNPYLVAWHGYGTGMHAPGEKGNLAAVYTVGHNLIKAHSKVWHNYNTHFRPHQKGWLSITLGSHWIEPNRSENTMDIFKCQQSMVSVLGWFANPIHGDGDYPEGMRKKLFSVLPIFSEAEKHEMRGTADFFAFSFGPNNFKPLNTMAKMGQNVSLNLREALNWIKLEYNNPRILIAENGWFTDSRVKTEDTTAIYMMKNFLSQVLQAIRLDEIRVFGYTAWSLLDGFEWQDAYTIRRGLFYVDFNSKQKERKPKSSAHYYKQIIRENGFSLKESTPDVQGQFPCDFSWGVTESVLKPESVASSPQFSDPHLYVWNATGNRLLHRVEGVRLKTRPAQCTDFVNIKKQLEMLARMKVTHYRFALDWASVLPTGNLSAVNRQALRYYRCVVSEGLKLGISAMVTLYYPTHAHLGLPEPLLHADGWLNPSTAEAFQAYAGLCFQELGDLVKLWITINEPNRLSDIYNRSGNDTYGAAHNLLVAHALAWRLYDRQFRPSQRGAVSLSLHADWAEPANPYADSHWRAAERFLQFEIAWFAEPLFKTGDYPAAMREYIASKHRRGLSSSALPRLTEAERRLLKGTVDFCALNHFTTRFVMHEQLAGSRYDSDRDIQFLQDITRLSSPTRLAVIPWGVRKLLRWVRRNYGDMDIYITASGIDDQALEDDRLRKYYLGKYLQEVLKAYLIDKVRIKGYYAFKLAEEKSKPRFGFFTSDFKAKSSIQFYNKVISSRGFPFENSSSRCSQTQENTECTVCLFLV
Description: FGF19 and FGF21 C-terminal WT and mutant peptides were custom synthesized and purified (>95% purity) (LifeTein LLC, South Plainfield, NJ). Binding of FGF19 and FGF21 peptides to β-Klotho was assessed using an AlphaScreen® assay. Briefly, 20 nM of β-Klotho ECD 6 × His, varying amounts of FGF19 and 21 peptides, and 40 nM of biotinylated human FGF19 or FGF21 protein were prepared in AlphaLISA universal buffer (PerkinElmer) and added to individual wells in 384-well white opaque plates (Greiner Bio-One). Subsequently, streptavidin donor beads and nickel chelate (Ni-NTA) acceptor beads (AlphaScreen Histidine detection kit; PerkinElmer) were diluted to 40 µg/mL and added to the plates. Total reaction volume was 8 µL. Plates were incubated for 3 hours at room temperature protected from light and read on the EnVision Multilabel Plate Reader (PerkinElmer) according to the manufacturer’s instructions. Assays were performed in triplicate. IC50 values were determined from a three-parameter logistic regression model with the least squares fit using GraphPad Prism version 7.

[2] = system: FGFR (expressed endogenously in HEK293T reporter cells); experiment: Elk1-luciferase reporter assay in HEK293T reporter cells without β-Klotho (no KLB); type: cell-based, human; conditions: d.n.c = did not converge
Description: To measure the signaling activity of β-Klotho mutants, ELK luciferase assay was performed in HEK293T cells that were stably transfected with reporter constructs containing 5 × UAS upstream of luciferase and Gal4 DNA-binding domain fused to ELK1. Briefly, HEK293T reporter cells were maintained in DMEM supplemented with 10% (v/v) FBS (Gibco) and 2 mM GlutaMax (Gibco) in a 37 °C incubator with 5% CO2. Cells were plated on 96-well plates in growth medium and incubated overnight. […] Cells were serum-starved in DMEM supplemented with 5% (v/v) FBS (Gibco) and 2 mM GlutaMax (Gibco) overnight the day after transfection and treated with FGF21 for 6 hours at 37 °C with 5% CO2, after which the cells were lysed in Bright-Glo luciferase reagent (Promega). Luciferase activity was measured in relative luminescence units on the EnVision Multilabel Plate Reader (PerkinElmer) according to the manufacturer’s instructions. All assays were performed in duplicates. EC50 values were determined from a three-parameter logistic regression model with the least squares fit using GraphPad Prism version 7.

[3] = system: β-Klotho/FGFR complex; experiment: Elk1-luciferase reporter assay in HEK293T reporter cells transiently transfected with full-length WT β-Klotho; type: cell-based, human; conditions: 6 h treatment, mean ± SD of three independent experiments, read-out: EC50, stimulation of Elk1-luciferase reporter activity (KLB WT)
Description: To measure the signaling activity of β-Klotho mutants, ELK luciferase assay was performed in HEK293T cells that were stably transfected with reporter constructs containing 5 × UAS upstream of luciferase and Gal4 DNA-binding domain fused to ELK1. Briefly, HEK293T reporter cells were maintained in DMEM supplemented with 10% (v/v) FBS (Gibco) and 2 mM GlutaMax (Gibco) in a 37 °C incubator with 5% CO2. Cells were plated on 96-well plates in growth medium and incubated overnight. The next day, cells were transfected with expression vectors encoding full-length β-Klotho WT or mutants using the Lipofectamine 2000 transfection reagent (Invitrogen) according to the manufacturer’s protocol. Cells were serum-starved in DMEM supplemented with 5% (v/v) FBS (Gibco) and 2 mM GlutaMax (Gibco) overnight the day after transfection and treated with FGF21 for 6 hours at 37 °C with 5% CO2, after which the cells were lysed in Bright-Glo luciferase reagent (Promega). Luciferase activity was measured in relative luminescence units on the EnVision Multilabel Plate Reader (PerkinElmer) according to the manufacturer’s instructions. All assays were performed in duplicates. EC50 values were determined from a three-parameter logistic regression model with the least squares fit using GraphPad Prism version 7.

Substance: PQPPDAGSSDPLSMVGPSQGRSPSYAS [188V-A]
IC50, competition with FGF21 (FGF21 C-terminal peptides) [1]: d.n.c

Substance: PQPPDVGSSDALSMVGPSQGRSPSYAS [193P-A]
IC50, competition with FGF21 (FGF21 C-terminal peptides) [1]: d.n.c

Now from value to substance, other results behind:

EC50 ([3]; Fig 3A): 0.038 ± 0.024 nM
Substance: FGF1: a prototypical paracrine FGF [reference compound]
EC50 ([2]; Fig 3A, mean ± SD of three independent experiments, read-out: EC50, stimulation of Elk1-luciferase reporter activity (no KLB)): 0.049 ± 0.037 nM

EC50 ([3]; Fig 3D): 2.88 ± 1.43 nM
Substance: FGF19: mature human FGF19 protein, endocrine fibroblast growth factor
EC50, stimulation of Elk1-luciferase reporter activity (no KLB) ([2]; Fig 3D): d.n.c

IC50 ([1]; read-out: IC50, competition with FGF21 (FGF21 C-terminal peptides)): 7.3 nM
Substance: PQPPDVGSSDPLSMVGPSQGASPSYAS [203R-A]
